Experiments:
CD4+ T cells = experiment: CD4+ T cell culture, CD4+ IFNγ+ cells by flow cytometry; format: cell-based, mice; conditions: 24 hours, PMA and ionomycin final 6 hours, relative to vehicle treated wells
Experimental: CD4+ T cells are central to the generation of inflammation in a variety of conductions. In addition, CD4+ T cells are primary responders to the IL-18 cytokine. As such, CD4+ T cells were cultured in vitro in the presence of selected compounds to test for pharmacological activity.
CD4+ T cell culture. Spleens were excised from mice and crushed between frosted microscope slides. Cellular suspension was filtered, centrifuged and exposed to hypotonic lysis to remove red blood cells. CD4+ T cells were enriched by magnetic sorting. Cells were re-suspended in IMDM and cultured in CD3- and CD28-coated round bottom wells. Cells were treated with indicated compounds at 10 and 100 nM or vehicle for 24 hours. During the final 6 hours, cells were stimulated with phorbol myristate acetate and ionomycin. Cells were then collected and stained with antibodies to detect CD45+ CD4+ IFNγ+ cells by flow cytometry. Data was acquired using a FACS Celesta flow cytometer with FACSDiva software.

DSS colitis model = experiment: DSS colitis model; format: in vivo, mice; conditions: oral, 20 mg/kg once daily, DSS in drinking water for seven days; for proportion of CD4+ IFNγ+ cells in the colonic lamina propria: flow cytometry; for severity of disease by macroscopic scoring of the colon: score 0 to 4, relative to vehicle group
From the text: Inflammation of the gastrointestinal tract can be caused by numerous factors including food antigens, infectious agents, autoimmunity, or radiation. The dextran sulfate sodium (DSS) model provides a model system where the epithelial barrier is disrupted in the distal intestine allowing for translocation of bacteria and generation of immune responses. DSS model. Mice were given DSS in drinking water for seven days. At project initiation, mice were approximately 8 weeks of age and began dosing 24 hours after being placed on DSS water. Treatments were prepared within a 0.5% methylcellulose solution. The dosage used was 20 mg/kg delivered once daily. At conclusion, colons were scored macroscopically for presence of lesions, blood, stool consistency, mucosal thickening, friability and length on a summarized score from 0 to 4. Flow cytometry. Colons were collected into RPMI/FBS buffer containing collagenase and DNase for digestion. Tissues were digested for 60 minutes under stifling at 37° C. Resultant cellular suspensions were filtered through 100 um strainers, centrifuged and washed in fresh RPMI. Following filtration, immune cells were purified by Percoll gradient of the cell-containing 40% Percoll overlayed onto 70% Percoll solution. After centrifugation, interphase was collected and washed to obtain enriched colonic lamina propria cell fractions. Cells were labeled with mixtures of extracellular and intracellular antibodies to quantify the presence of CD45+ CD3+ CD4+ CD8− IFNγ+ cells. Data was acquired using a FACS Celesta flow cytometer with FACSDiva software.

COc1cc(-c2cnc(C(=O)C3CCN(C(=O)c4cnnc5ccccc45)CC3)s2)ccc1O [Compound 11, cinnolin-4-yl(4-(5-(4-hydroxy-3-methoxyphenyl)thiazole-2-carbonyl)-piperidin-1-yl)methanone]
proportion of CD4+ IFNγ+ cells (CD4+ T cells; 10 nM): significantly reduced
proportion of CD4+ IFNγ+ cells (CD4+ T cells; 100 nM): significantly reduced
proportion of CD4+ IFNγ+ cells in the colonic lamina propria (DSS colitis model): reducing
severity of disease by macroscopic scoring of the colon (DSS colitis model): reduced

O=C(c1ncc(-c2ncccc2F)s1)[C@@H]1CN(C(=O)c2cc(F)ccn2)CCO1 [Compound 40, 4-fluoro-pyridin-2-yl(2-(S)-(5-(3-fluoropyridin-2-yl)thiazol-2-carbonyl)-morpholin-4-yl)methanone]
proportion of CD4+ IFNγ+ cells (CD4+ T cells; 10 nM): significantly reduced
proportion of CD4+ IFNγ+ cells (CD4+ T cells; 100 nM): significantly reduced
proportion of CD4+ IFNγ+ cells in the colonic lamina propria (DSS colitis model): reducing
severity of disease by macroscopic scoring of the colon (DSS colitis model): reduced

O=C(c1ncc(-c2ncccc2F)s1)[C@@H]1CN(C(=O)c2cc(F)c(F)cn2)CCO1 [Compound 34, 4,5-difluoro-pyridin-2-yl(2-(S)-(5-(3-fluoropyridin-2-yl)thiazol-2-carbonyl)-morpholin-4-yl)methanone]
proportion of CD4+ IFNγ+ cells (CD4+ T cells; 10 nM): significantly reduced
proportion of CD4+ IFNγ+ cells (CD4+ T cells; 100 nM): significantly reduced

O=C(c1ncc(-c2ncccc2F)s1)[C@@H]1CN(C(=O)c2cnnc3ccccc23)CCO1 [Compound 37, cinnolin-4-yl(2-(S)-(5-(3-fluoropyridin-2-yl)thiazol-2-carbonyl)-morpholin-4-yl)methanone]
proportion of CD4+ IFNγ+ cells (CD4+ T cells; 100 nM): significantly reduced
proportion of CD4+ IFNγ+ cells in the colonic lamina propria (DSS colitis model): reducing
severity of disease by macroscopic scoring of the colon (DSS colitis model): reduced

O=C1C=C(C(=O)N2CCO[C@H](C(=O)c3ncc(-c4ccccc4F)s3)C2)NN2CC=CC12 (stereo partly drawn) [Compound 69, 2-((S)-2-(5-(2-fluorophenyl)thiazole-2-carbonyl)morpholine-4-carbonyl)-4a,7-dihydropyrrolo[1,2-b]pyridazin-4(1H)-one]
proportion of CD4+ IFNγ+ cells (CD4+ T cells; 100 nM): significantly reduced

Source: patent US12698281B2, “Thiazole derivatives for therapeutic use” (NIMML Institute, priority 2022, dated 2026)
